In ChEMBL document CHEMBL5113409, “Design and synthesis of proteolysis targeting chimeras (PROTACs) as an EGFR degrader based on CO-1686” (Eur J Med Chem, 2022):
The source made the active and inactive calls. The calls are words filed in the database; no cut-off is given here.

What was measured:
A549 = test: Anti-proliferative activity against human A549 cells assessed as reduction in cell proliferation incubated for 72 hrs by MTT assay; format: functional, cell-based; details: A549, 72 h
PC-9 = test: Anti-proliferative activity against human PC-9 cells assessed as reduction in cell proliferation incubated for 72 hrs by MTT assay; format: functional, cell-based; details: PC-9, 72 h
NCI-H1975 = test: Anti-proliferative activity against human NCI-H1975 cells assessed as reduction in cell proliferation incubated for 72 hrs by MTT assay; format: functional, cell-based; details: NCI-H1975, 72 h
[1] = test system: Protein cereblon/Epidermal growth factor receptor (Homo sapiens), P00533+Q96SW2 [L858R,T790M]; test: Protac activity at CRBN/EGFR L858R/T790M mutant in human NCI-H1975 cells assessed as L858R/T790M mutant degradation at 3 uM incubated for 48 hrs by Western blot analysis; format: cell-based
Homo sapiens = species on record: Homo sapiens; test: Selectivity index, ratio of IC50 for wild type EGFR (unknown origin) to IC50 for Protein cereblon/Epidermal growth factor receptor L858R/T790M mutant
[2] = target: Epidermal growth factor receptor (Homo sapiens, UniProt P00533); test: Inhibition of wild type EGFR (unknown origin) incubated for 10 mins by HTRF KinEASE-TK assay
[3] = target: Epidermal growth factor receptor (Homo sapiens, UniProt P00533, L858R/T790M); test: Inhibition of EGFR L858R/T790M mutant (unknown origin) incubated for 35 mins by HTRF KinEASE-TK assay

Compound | IC50 (A549) | IC50 (PC-9) | IC50 (NCI-H1975) | Activity [1] | Ratio IC50 (Homo sapiens) | IC50 [2] | IC50 [3]
C=CC(=O)Nc1cccc(Nc2nc(Nc3ccc(N4CCN(CC(=O)NCCCNC(=O)CNc5cccc6c5C(=O)N(C5CCC(=O)NC5=O)C6=O)CC4)cc3OC)ncc2C(F)(F)F)c1 (configuration not stated) | > 100 µM | 7.67 µM | 7.35 µM |  |  |  | 
C=CC(=O)Nc1cccc(Nc2nc(Nc3ccc(N4CCN(CC(=O)NCCNc5ccc6c(c5)C(=O)N(C5CCC(=O)NC5=O)C6=O)CC4)cc3OC)ncc2C(F)(F)F)c1 (configuration not stated) | > 100 µM | 3.51 µM | 4.72 µM |  |  |  | 
C=CC(=O)Nc1cccc(Nc2nc(Nc3ccc(N4CCN(C(=O)CCCCCC(=O)Nc5cccc6c5C(=O)N(C5CCC(=O)NC5=O)C6=O)CC4)cc3OC)ncc2C(F)(F)F)c1 (configuration not stated) | 29.8 µM | 0.9 µM | 0.59 µM | Active | 32 | 0.648 µM | 0.0203 µM
C=CC(=O)Nc1cccc(Nc2nc(Nc3ccc(N4CCN(CC(=O)NCCNc5cccc6c5CN(C5CCC(=O)NC5=O)C6=O)CC4)cc3OC)ncc2C(F)(F)F)c1 (configuration not stated) | 33.3 µM | 4.86 µM | 8.36 µM |  | 2.5 | 2.4 µM | 0.965 µM
C=CC(=O)Nc1cccc(Nc2nc(Nc3ccc(N4CCN(C(=O)CCCC(=O)Nc5cccc6c5C(=O)N(C5CCC(=O)NC5=O)C6=O)CC4)cc3OC)ncc2C(F)(F)F)c1 (configuration not stated) | > 100 µM | 1.35 µM | 0.95 µM | Active | 98 | 3.23 µM | 0.033 µM
C=CC(=O)Nc1cccc(Nc2nc(Nc3ccc(N4CCN(CC(=O)NCCOc5cccc6c5C(=O)N(C5CCC(=O)NC5=O)C6=O)CC4)cc3OC)ncc2C(F)(F)F)c1 (configuration not stated) | > 100 µM | 7.34 µM | 9.31 µM |  |  |  | 
C=CC(=O)Nc1cccc(Nc2nc(Nc3ccc(N4CCN(C(C)=O)CC4)cc3OC)ncc2C(F)(F)F)c1 [ROCILETINIB] | 7.57 µM | 0.27 µM | 0.13 µM |  |  |  | 
C=CC(=O)Nc1cccc(Nc2nc(Nc3ccc(N4CCN(CCOCCNc5cccc6c5C(=O)N(C5CCC(=O)NC5=O)C6=O)CC4)cc3OC)ncc2C(F)(F)F)c1 (configuration not stated) | 36.9 µM | 0.5 µM | 0.22 µM | Active | 15 | 0.364 µM | 0.0241 µM
C=CC(=O)Nc1cccc(Nc2nc(Nc3ccc(N4CCN(C(=O)CCCCNc5cccc6c5C(=O)N(C5CCC(=O)NC5=O)C6=O)CC4)cc3OC)ncc2C(F)(F)F)c1 (configuration not stated) | > 100 µM | 6.74 µM | 1.09 µM | Active | 5 | 0.614 µM | 0.121 µM
C=CC(=O)Nc1cccc(Nc2nc(Nc3ccc(N4CCN(CC(=O)NCCNc5cccc6c5C(=O)N(C5CCC(=O)N(C)C5=O)C6=O)CC4)cc3OC)ncc2C(F)(F)F)c1 (configuration not stated) | > 100 µM | 1.89 µM | 4.68 µM |  | 11 | 1.4 µM | 0.134 µM
C=CC(=O)Nc1cccc(Nc2nc(Nc3ccc(N4CCN(CC(=O)NCCNC(=O)CNc5cccc6c5C(=O)N(C5CCC(=O)NC5=O)C6=O)CC4)cc3OC)ncc2C(F)(F)F)c1 (configuration not stated) | > 100 µM | 13.4 µM | 8.89 µM |  |  |  | 

The next lines start with results.

IC50 (A549) | IC50 (PC-9) | IC50 (NCI-H1975) | Compound | Activity [1] | Ratio IC50 (Homo sapiens) | IC50 [2] | IC50 [3]
> 100 µM | 5.31 µM | 1.53 µM | C=CC(=O)Nc1cccc(Nc2nc(Nc3ccc(N4CCN(C(=O)CCCCCCCC(=O)Nc5cccc6c5C(=O)N(C5CCC(=O)NC5=O)C6=O)CC4)cc3OC)ncc2C(F)(F)F)c1 (configuration not stated) |  |  |  | 
> 100 µM | 2.55 µM | 5.02 µM | C=CC(=O)Nc1cccc(Nc2nc(Nc3ccc(N4CCN(C(=O)CCCCCCC(=O)Nc5cccc6c5C(=O)N(C5CCC(=O)NC5=O)C6=O)CC4)cc3OC)ncc2C(F)(F)F)c1 (configuration not stated) |  |  |  | 
> 100 µM | 8.77 µM | 8.55 µM | C=CC(=O)Nc1cccc(Nc2nc(Nc3ccc(N4CCN(C(=O)CCCCCCCCCCC(=O)Nc5cccc6c5C(=O)N(C5CCC(=O)NC5=O)C6=O)CC4)cc3OC)ncc2C(F)(F)F)c1 (configuration not stated) |  |  |  | 
> 100 µM | 13.2 µM | 11.7 µM | C=CC(=O)Nc1cccc(Nc2nc(Nc3ccc(N4CCN(CC(=O)NCCCCNC(=O)CNc5cccc6c5C(=O)N(C5CCC(=O)NC5=O)C6=O)CC4)cc3OC)ncc2C(F)(F)F)c1 (configuration not stated) |  |  |  | 
> 100 µM | 18.1 µM | 17.1 µM | C=CC(=O)Nc1cccc(Nc2nc(Nc3ccc(N4CCN(C(=O)CCCCCCCCCCCC(=O)Nc5cccc6c5C(=O)N(C5CCC(=O)NC5=O)C6=O)CC4)cc3OC)ncc2C(F)(F)F)c1 (configuration not stated) |  |  |  | 
> 100 µM | 46.5 µM | 62 µM | C=CC(=O)Nc1cccc(Nc2nc(Nc3ccc(N4CCN(C(=O)CCCCCCCCCCCCC(=O)Nc5cccc6c5C(=O)N(C5CCC(=O)NC5=O)C6=O)CC4)cc3OC)ncc2C(F)(F)F)c1 (configuration not stated) |  |  |  | 
> 100 µM | 26.7 µM | 17 µM | C=CC(=O)Nc1cccc(Nc2nc(Nc3ccc(N4CCN(C(=O)CCCCCCCCC(=O)Nc5cccc6c5C(=O)N(C5CCC(=O)NC5=O)C6=O)CC4)cc3OC)ncc2C(F)(F)F)c1 (configuration not stated) |  |  |  | 
> 100 µM | 3.28 µM | 4.14 µM | C=CC(=O)Nc1cccc(Nc2nc(Nc3ccc(N4CCN(CC(=O)NCCCCCCNc5cccc6c5C(=O)N(C5CCC(=O)NC5=O)C6=O)CC4)cc3OC)ncc2C(F)(F)F)c1 (configuration not stated) |  |  |  | 
> 100 µM | 3.69 µM | 2.81 µM | C=CC(=O)Nc1cccc(Nc2nc(Nc3ccc(N4CCN(C(=O)CCCCCCCCCC(=O)Nc5cccc6c5C(=O)N(C5CCC(=O)NC5=O)C6=O)CC4)cc3OC)ncc2C(F)(F)F)c1 (configuration not stated) |  |  |  | 
> 100 µM | 3.43 µM | 0.52 µM | C=CC(=O)Nc1cccc(Nc2nc(Nc3ccc(N4CCN(CC(=O)NCCCCCNc5cccc6c5C(=O)N(C5CCC(=O)NC5=O)C6=O)CC4)cc3OC)ncc2C(F)(F)F)c1 (configuration not stated) |  |  |  | 
> 100 µM | 2.58 µM | 5.76 µM | C=CC(=O)Nc1cccc(Nc2nc(Nc3ccc(N4CCN(CC(=O)NCCCNc5cccc6c5C(=O)N(C5CCC(=O)NC5=O)C6=O)CC4)cc3OC)ncc2C(F)(F)F)c1 (configuration not stated) |  |  |  | 
> 100 µM | 4.62 µM | 1.56 µM | C=CC(=O)Nc1cccc(Nc2nc(Nc3ccc(N4CCN(C(=O)CCCCC(=O)Nc5cccc6c5C(=O)N(C5CCC(=O)NC5=O)C6=O)CC4)cc3OC)ncc2C(F)(F)F)c1 (configuration not stated) |  |  |  | 
> 100 µM | 14.4 µM | 12.8 µM | C=CC(=O)Nc1cccc(Nc2nc(Nc3ccc(N4CCN(CC(=O)NCCCCCNC(=O)CNc5cccc6c5C(=O)N(C5CCC(=O)NC5=O)C6=O)CC4)cc3OC)ncc2C(F)(F)F)c1 (configuration not stated) |  |  |  | 
> 100 µM | 6.61 µM | 17 µM | C=CC(=O)Nc1cccc(Nc2nc(Nc3ccc(N4CCN(CC(=O)NCCCCCCNC(=O)CNc5cccc6c5C(=O)N(C5CCC(=O)NC5=O)C6=O)CC4)cc3OC)ncc2C(F)(F)F)c1 (configuration not stated) |  |  |  | 
